Assay results reported in ChEMBL document CHEMBL1201862, “PubChem BioAssay data set” (2004).
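Exposure lasted 48 hours, with cells grown in 96-well plates and compounds tested at five concentrations. GI50 is the concentration that inhibits growth by half.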 Calls of active or inactive are those of the source. Cut-off read from the data, not from the text of the source: active = GI50 up to about 1.1 µM and inactive = higher.

How the values were obtained:
Assay in all cases: inhibition of tumour cell growth, NCI panel, 48 h
[1] = tested on: BT-549
[2] = tested on: CAKI-1
[3] = tested on: HCT-116
[4] = tested on: HCT-15
[5] = tested on: KM12
[6] = tested on: M14
[7] = tested on: MCF7
[8] = tested on: MDA-MB-231
[9] = tested on: MDA-MB-435
[10] = tested on: Malme-3M
[11] = tested on: NCI-H23
[12] = tested on: OVCAR-3
[13] = tested on: SNB-19
[14] = tested on: T47D
[15] = tested on: UACC-257
[16] = tested on: UACC-62
[17] = tested on: UO-31
[18] = tested on: A498
[19] = tested on: LOX IMVI
[20] = tested on: HOP-92

Compound	GI50 [1]	GI50 [2]	GI50 [3]	GI50 [4] [µM]	GI50 [5]	GI50 [6]	GI50 [7]	GI50 [8]	GI50 [9]	GI50 [10]	GI50 [11]	GI50 [12]	GI50 [13]	GI50 [14]	GI50 [15]	GI50 [16]	GI50 [17]	GI50 [18]	GI50 [19]	GI50 [20]
O=S(=O)(c1ccc(Cl)cc1)c1ccccc1C1=NCCN1	> 100 µM (inactive)	> 100 µM (inactive)	> 100 µM (inactive)	> 100	> 100 µM (inactive)	> 100 µM (inactive)	> 100 µM (inactive)	> 100 µM (inactive)	> 100 µM (inactive)	> 100 µM (inactive)	> 100 µM (inactive)	> 100 µM (inactive)	> 100 µM (inactive)	> 100 µM (inactive)	> 100 µM (inactive)	> 100 µM (inactive)	> 100 µM (inactive)	–	–	–
Cc1ccc(C(=O)Nc2ccc(CP(=O)(O)O)cc2CP(=O)(O)O)cc1NC(=O)c1cccc(NC(=O)Nc2cccc(C(=O)Nc3cc(C(=O)Nc4ccc(CP(=O)(O)O)cc4CP(=O)(O)O)ccc3C)c2)c1	> 100 µM (inactive)	> 100 µM (inactive)	> 100 µM (inactive)	> 100	> 100 µM (inactive)	> 100 µM (inactive)	> 100 µM (inactive)	> 100 µM (inactive)	> 100 µM (inactive)	> 100 µM (inactive)	> 100 µM (inactive)	> 100 µM (inactive)	–	> 100 µM (inactive)	> 100 µM (inactive)	> 100 µM (inactive)	> 100 µM (inactive)	> 100 µM (inactive)	> 100 µM (inactive)	–
c1ccc(CN2CCC(=NN3CCCCC3)CC2)cc1	43.5 µM (inactive)	> 100 µM (inactive)	64.1 µM (inactive)	> 100	78.3 µM (inactive)	> 100 µM (inactive)	43.3 µM (inactive)	43.3 µM (inactive)	72.8 µM (inactive)	> 100 µM (inactive)	78.2 µM (inactive)	44.2 µM (inactive)	> 100 µM (inactive)	37.1 µM (inactive)	47.1 µM (inactive)	> 100 µM (inactive)	64.7 µM (inactive)	–	70.6 µM (inactive)	16.2 µM (inactive)
O=C(NN1C(=O)C=CC1=O)c1ccccc1Nc1ccccc1C(=O)NN1C(=O)C=CC1=O	> 100 µM (inactive)	> 100 µM (inactive)	> 100 µM (inactive)	> 100	> 100 µM (inactive)	> 100 µM (inactive)	> 100 µM (inactive)	> 100 µM (inactive)	> 100 µM (inactive)	> 100 µM (inactive)	> 100 µM (inactive)	> 100 µM (inactive)	> 100 µM (inactive)	> 100 µM (inactive)	> 100 µM (inactive)	> 100 µM (inactive)	> 100 µM (inactive)	–	> 100 µM (inactive)	> 100 µM (inactive)
N#CCCN(CCC#N)c1ccc(/C=C2\N=C(c3ccccc3)N(c3ccc(C(=O)O)cc3)C2=O)cc1	24.4 µM (inactive)	–	33.7 µM (inactive)	40.8	17.2 µM (inactive)	72.1 µM (inactive)	37.6 µM (inactive)	52 µM (inactive)	31.8 µM (inactive)	–	–	40.1 µM (inactive)	32.2 µM (inactive)	40.7 µM (inactive)	37.2 µM (inactive)	23.8 µM (inactive)	77.1 µM (inactive)	> 100 µM (inactive)	30.9 µM (inactive)	6.28 µM (inactive)
O=C1CCCCC/C1=C\c1cccc([N+](=O)[O-])c1	24.5 µM (inactive)	36.1 µM (inactive)	22.2 µM (inactive)	–	25 µM (inactive)	26.5 µM (inactive)	48.3 µM (inactive)	23.8 µM (inactive)	32.7 µM (inactive)	28.5 µM (inactive)	–	28.8 µM (inactive)	38.6 µM (inactive)	36 µM (inactive)	22.4 µM (inactive)	22.5 µM (inactive)	27.7 µM (inactive)	> 100 µM (inactive)	–	–
CCOC(=O)CC1C(O)C(=O)N(C)C1c1ccccc1 (configuration not stated)	> 100 µM (inactive)	> 100 µM (inactive)	> 100 µM (inactive)	> 100	> 100 µM (inactive)	> 100 µM (inactive)	> 100 µM (inactive)	> 100 µM (inactive)	> 100 µM (inactive)	> 100 µM (inactive)	> 100 µM (inactive)	> 100 µM (inactive)	> 100 µM (inactive)	> 100 µM (inactive)	> 100 µM (inactive)	> 100 µM (inactive)	> 100 µM (inactive)	–	> 100 µM (inactive)	> 100 µM (inactive)
CC(=O)Oc1ccc2c(c1)O/C(=C\c1ccc(N(C)C)cc1)C2=O	68.4 µM (inactive)	> 100 µM (inactive)	85.5 µM (inactive)	67	90.8 µM (inactive)	> 100 µM (inactive)	> 100 µM (inactive)	68.5 µM (inactive)	35.3 µM (inactive)	–	> 100 µM (inactive)	–	53.8 µM (inactive)	> 100 µM (inactive)	> 100 µM (inactive)	> 100 µM (inactive)	26.3 µM (inactive)	–	–	–
CC(C)(C)OC(=O)N1CCC2(C)CC(=O)CC=C12 (configuration not stated)	> 100 µM (inactive)	> 100 µM (inactive)	81.8 µM (inactive)	> 100	> 100 µM (inactive)	> 100 µM (inactive)	> 100 µM (inactive)	> 100 µM (inactive)	> 100 µM (inactive)	> 100 µM (inactive)	> 100 µM (inactive)	> 100 µM (inactive)	> 100 µM (inactive)	> 100 µM (inactive)	28.2 µM (inactive)	> 100 µM (inactive)	> 100 µM (inactive)	–	> 100 µM (inactive)	> 100 µM (inactive)
C[C@H]1O[C@@H](O[C@H]2[C@@H](O)C[C@H](O[C@H]3[C@@H](O)C[C@H](O[C@H]4CC[C@@]5(C)[C@H](CC[C@@H]6[C@@H]5CC[C@]5(C)[C@@H](C7=CC(=O)OC7)[C@@H](O)C[C@]65O)C4)O[C@@H]3C)O[C@@H]2C)C[C@H](O)[C@@H]1O [GITOXIN]	0.116 µM (active)	0.107 µM (active)	0.127 µM (active)	0.593	0.658 µM (active)	0.475 µM (active)	–	1.2 µM (inactive)	0.365 µM (active)	0.206 µM (active)	0.0869 µM (active)	0.13 µM (active)	0.714 µM (active)	0.42 µM (active)	0.522 µM (active)	0.418 µM (active)	0.219 µM (active)	0.237 µM (active)	0.215 µM (active)	0.402 µM (active)
CCCCCCc1cc2cc(-c3cn4c(n3)sc3ccccc34)c(=O)oc2cc1O	> 100 µM (inactive)	> 100 µM (inactive)	> 95.1 µM (inactive)	> 75.7	> 26.9 µM (inactive)	4.94 µM (inactive)	> 100 µM (inactive)	> 100 µM (inactive)	3.46 µM (inactive)	2.36 µM (inactive)	> 100 µM (inactive)	> 100 µM (inactive)	> 100 µM (inactive)	> 100 µM (inactive)	4.42 µM (inactive)	2.36 µM (inactive)	> 100 µM (inactive)	–	> 100 µM (inactive)	> 100 µM (inactive)
